Positions of bridges follow the written chain, without caps; N, C: chain ends. Non-standard residues stand in square brackets, D forms with d. Residues, ends and D or L forms follow the SMILES beside them. No end group written: not given here. Cha = N[C@@H](CC1CCCCC1)C(=O)O; Pen = CC(C)(S)[C@H](N)C(=O)O
Test system: rabbit aortic rings

CC[C@H](C)[C@@H]1NC(=O)[C@H](CCCNC(=N)N)NC(=O)[C@H](CC(=O)O)NC(=O)[C@H]([C@@H](C)CC)NC(=O)[C@H](CCCNC(=N)N)NC(=O)CNC(=O)CNC(=O)[C@H](Cc2ccccc2)NC(=O)[C@@H](NC(=O)[C@H](CO)NC(=O)[C@@H](N)CO)CSSC[C@@H](C(=O)N[C@@H](CC(N)=O)C(=O)N[C@@H](CO)C(=O)N[C@@H](Cc2ccccc2)C(=O)N[C@@H](CCCNC(=N)N)C(=O)N[C@@H](Cc2ccc(O)cc2)C(=O)O)NC(=O)CNC(=O)[C@H](CC(C)C)NC(=O)CNC(=O)[C@H](CO)NC(=O)[C@H](CCC(N)=O)NC(=O)[C@H](C)NC(=O)CNC1=O [ANP-(103-126), ATRIOPEPTIN III] (H-SSCFGGRIDRIGAQSGLGCNSFRY-OH; disulfide 3-19)
EC50 (read-out: EC50 in the rabbit aorta, relaxation of norepinephrine precontracted rings, n = 8): 2.3 ± 1.6 nM

[Pen][Cha]GRIDRIG-NH2 [Peptide No. 6]
Relative Potencies to ANP-(103-126), Rabbit Aorta (relaxation of norepinephrine (50 nM) precontracted rings, EC50 compared with ANP-(103-126)): 0.010

From patent US5106834A, “Linear free-sulfhydryl-containing oligopeptide derivatives as antihypertensive agents” (G. D. Searle & Co., priority 1988, dated 1992)
